Laboratory results as given in the kinase profiling compilation of Christmann-Franck et al. (2016).
Several values for one entry are separate records, joined by “and”; a condition that tells them apart may be missing. Identical values can stand only once.

Experiments:
Assay in all cases: radiometric filter-binding kinase assay, Kinaseprofiler
[1] = target: TBK1 (human) (UniProt Q9UHD2); settings: ATP 155 µM
[2] = target: FRK (human) (UniProt P42685); settings: ATP 155 µM
[3] = target: SRPK2 (human) (UniProt P78362); settings: ATP 10 µM
[4] = test system: TEK (human), Q02763 [Q939H/Q940H]; settings: ATP 200 µM
[5] = target: EPHA2 (human) (UniProt P29317); settings: ATP 155 µM
Chain of EPHA2 (human) (P29317 whole entry, looked up): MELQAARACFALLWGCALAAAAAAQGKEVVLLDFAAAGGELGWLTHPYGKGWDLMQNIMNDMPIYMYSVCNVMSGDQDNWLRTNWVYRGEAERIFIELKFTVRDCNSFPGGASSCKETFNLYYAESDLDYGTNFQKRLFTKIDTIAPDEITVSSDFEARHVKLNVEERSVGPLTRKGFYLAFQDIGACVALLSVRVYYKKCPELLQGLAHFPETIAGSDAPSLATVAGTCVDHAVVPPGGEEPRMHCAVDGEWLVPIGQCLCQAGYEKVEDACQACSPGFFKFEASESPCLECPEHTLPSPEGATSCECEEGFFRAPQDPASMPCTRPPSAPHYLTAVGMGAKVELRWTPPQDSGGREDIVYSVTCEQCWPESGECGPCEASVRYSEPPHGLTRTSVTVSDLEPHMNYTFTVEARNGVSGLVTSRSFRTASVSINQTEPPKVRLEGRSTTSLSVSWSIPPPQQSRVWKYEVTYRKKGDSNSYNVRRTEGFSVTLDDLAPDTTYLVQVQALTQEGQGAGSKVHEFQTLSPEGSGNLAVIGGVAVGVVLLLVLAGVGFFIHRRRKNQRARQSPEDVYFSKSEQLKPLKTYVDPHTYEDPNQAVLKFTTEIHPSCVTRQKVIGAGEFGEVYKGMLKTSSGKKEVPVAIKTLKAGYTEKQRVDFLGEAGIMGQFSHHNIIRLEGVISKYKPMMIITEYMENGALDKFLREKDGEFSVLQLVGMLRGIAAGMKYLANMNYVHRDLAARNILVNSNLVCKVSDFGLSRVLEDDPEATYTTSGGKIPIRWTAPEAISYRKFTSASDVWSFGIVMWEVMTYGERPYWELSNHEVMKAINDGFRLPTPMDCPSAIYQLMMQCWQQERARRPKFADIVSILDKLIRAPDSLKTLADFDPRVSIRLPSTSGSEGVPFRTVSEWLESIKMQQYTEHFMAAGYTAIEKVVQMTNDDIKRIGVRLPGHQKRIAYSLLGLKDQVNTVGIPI

[6] = target: TXK (human) (UniProt P42681); settings: ATP 200 µM
Chain of TXK (human) (P42681 whole entry, looked up): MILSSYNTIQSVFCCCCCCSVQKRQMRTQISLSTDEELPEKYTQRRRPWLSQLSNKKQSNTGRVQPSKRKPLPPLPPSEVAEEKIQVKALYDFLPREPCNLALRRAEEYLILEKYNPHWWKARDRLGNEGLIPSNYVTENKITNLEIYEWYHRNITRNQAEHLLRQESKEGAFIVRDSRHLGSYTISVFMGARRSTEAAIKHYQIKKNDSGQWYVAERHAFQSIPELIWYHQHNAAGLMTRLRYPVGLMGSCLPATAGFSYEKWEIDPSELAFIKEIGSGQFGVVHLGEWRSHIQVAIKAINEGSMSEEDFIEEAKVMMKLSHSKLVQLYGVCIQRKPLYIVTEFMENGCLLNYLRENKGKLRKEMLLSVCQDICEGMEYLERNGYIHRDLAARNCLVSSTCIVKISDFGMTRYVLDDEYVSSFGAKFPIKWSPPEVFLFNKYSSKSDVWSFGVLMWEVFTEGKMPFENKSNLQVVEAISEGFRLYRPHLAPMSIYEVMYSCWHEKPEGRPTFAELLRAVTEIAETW

[7] = target: PIM2 (human) (UniProt Q9P1W9); settings: ATP 15 µM
[8] = target: CSNK2A1 CSNK2B CSNK2A2 (human) (UniProt P19784+P68400+P67870); settings: ATP 15 µM
[9] = target: DAPK2 (human) (UniProt Q9UIK4); settings: ATP 10 µM
[10] = target: NUAK1 (human) (UniProt O60285); settings: ATP 45 µM
[11] = target: CDC42BPA (human) (UniProt Q5VT25); settings: ATP 45 µM
[12] = target: PRKAA2 PRKAB1 PRKAG1 (human) (UniProt P54619+P54646+Q9Y478); settings: ATP 45 µM
Chain of PRKAA2 PRKAB1 PRKAG1 (human) (P54619 whole entry, looked up): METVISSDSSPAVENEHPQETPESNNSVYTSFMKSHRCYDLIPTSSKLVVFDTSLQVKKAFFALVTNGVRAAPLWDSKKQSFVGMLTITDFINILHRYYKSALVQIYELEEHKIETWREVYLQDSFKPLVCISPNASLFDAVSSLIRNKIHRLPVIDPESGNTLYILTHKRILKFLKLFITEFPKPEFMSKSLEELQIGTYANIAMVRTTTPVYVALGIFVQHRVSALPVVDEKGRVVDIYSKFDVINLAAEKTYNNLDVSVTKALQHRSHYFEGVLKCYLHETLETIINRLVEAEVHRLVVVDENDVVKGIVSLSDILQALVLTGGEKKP
Chain of PRKAA2 PRKAB1 PRKAG1 (human) (P54646 whole entry, looked up): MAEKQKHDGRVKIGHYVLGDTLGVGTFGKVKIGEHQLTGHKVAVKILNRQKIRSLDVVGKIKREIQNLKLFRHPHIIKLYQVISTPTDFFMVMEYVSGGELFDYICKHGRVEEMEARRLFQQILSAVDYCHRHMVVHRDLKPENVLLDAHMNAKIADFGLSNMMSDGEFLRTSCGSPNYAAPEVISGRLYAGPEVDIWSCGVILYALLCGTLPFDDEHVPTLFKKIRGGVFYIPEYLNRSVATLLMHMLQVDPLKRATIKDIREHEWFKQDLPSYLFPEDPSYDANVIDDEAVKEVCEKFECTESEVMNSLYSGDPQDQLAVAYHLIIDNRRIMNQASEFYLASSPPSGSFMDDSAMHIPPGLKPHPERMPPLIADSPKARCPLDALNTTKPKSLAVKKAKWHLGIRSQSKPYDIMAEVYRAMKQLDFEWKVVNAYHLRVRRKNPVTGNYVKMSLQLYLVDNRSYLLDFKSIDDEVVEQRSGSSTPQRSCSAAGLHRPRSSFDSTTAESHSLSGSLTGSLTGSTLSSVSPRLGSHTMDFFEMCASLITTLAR
Chain of PRKAA2 PRKAB1 PRKAG1 (human) (Q9Y478 whole entry, looked up): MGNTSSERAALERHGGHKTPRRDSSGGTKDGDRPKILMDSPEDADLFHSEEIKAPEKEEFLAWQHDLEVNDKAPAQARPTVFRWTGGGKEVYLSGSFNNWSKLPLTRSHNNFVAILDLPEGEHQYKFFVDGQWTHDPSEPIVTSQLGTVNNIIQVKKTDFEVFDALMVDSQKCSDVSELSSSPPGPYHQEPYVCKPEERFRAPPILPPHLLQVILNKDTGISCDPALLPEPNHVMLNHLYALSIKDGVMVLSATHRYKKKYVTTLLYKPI

[13] = target: ACVR1B (human) (UniProt P36896); settings: ATP 10 µM
[14] = target: PDGFRA (human) (UniProt P16234); settings: ATP 120 µM
[15] = target: SRPK3 (human) (UniProt Q9UPE1); settings: ATP 15 µM
[16] = target: FGR (human) (UniProt P09769); settings: ATP 45 µM
Chain of FGR (human) (P09769 whole entry, looked up): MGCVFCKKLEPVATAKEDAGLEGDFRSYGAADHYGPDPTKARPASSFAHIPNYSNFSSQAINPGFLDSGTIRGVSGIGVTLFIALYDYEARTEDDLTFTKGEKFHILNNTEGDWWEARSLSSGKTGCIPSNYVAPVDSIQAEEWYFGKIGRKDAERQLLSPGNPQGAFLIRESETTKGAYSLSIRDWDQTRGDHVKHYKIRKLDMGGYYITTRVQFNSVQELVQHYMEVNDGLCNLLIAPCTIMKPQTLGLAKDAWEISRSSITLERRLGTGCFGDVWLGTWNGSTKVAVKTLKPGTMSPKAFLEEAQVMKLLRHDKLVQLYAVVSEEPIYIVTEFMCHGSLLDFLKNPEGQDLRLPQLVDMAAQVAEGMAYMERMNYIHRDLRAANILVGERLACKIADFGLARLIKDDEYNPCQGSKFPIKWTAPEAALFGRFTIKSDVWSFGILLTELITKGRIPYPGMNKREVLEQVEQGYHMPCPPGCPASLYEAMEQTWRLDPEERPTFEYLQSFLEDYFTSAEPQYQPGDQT

[17] = target: TLK2 (human) (UniProt Q86UE8); settings: ATP 10 µM
[18] = target: EPHA1 (human) (UniProt P21709); settings: ATP 45 µM
[19] = target: MAP2K7 (human) (UniProt O14733); settings: ATP 10 µM
[20] = target: TAOK1 (human) (UniProt Q7L7X3); settings: ATP 10 µM
[21] = target: BMX (human) (UniProt P51813); settings: ATP 45 µM
[22] = target: NEK2 (human) (UniProt P51955); settings: ATP 120 µM
[23] = target: PDGFRB (human) (UniProt P09619); settings: ATP 200 µM
[24] = target: CSF1R (human) (UniProt P07333); settings: ATP 200 µM
[25] = target: MAPKAPK3 (human) (UniProt Q16644); settings: ATP 90 µM
Chain of MAPKAPK3 (human) (Q16644 whole entry, looked up): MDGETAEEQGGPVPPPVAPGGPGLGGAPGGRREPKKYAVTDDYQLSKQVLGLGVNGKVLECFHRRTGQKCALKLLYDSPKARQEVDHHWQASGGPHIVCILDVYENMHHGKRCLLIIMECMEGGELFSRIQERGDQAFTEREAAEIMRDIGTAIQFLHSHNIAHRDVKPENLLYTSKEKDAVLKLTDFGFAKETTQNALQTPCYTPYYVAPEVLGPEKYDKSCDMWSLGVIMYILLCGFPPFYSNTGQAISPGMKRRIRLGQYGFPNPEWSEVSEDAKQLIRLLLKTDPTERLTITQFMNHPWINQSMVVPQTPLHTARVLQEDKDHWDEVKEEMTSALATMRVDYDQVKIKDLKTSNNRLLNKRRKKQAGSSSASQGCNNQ

[26] = target: MUSK (human) (UniProt O15146); settings: ATP 155 µM
[27] = target: LCK (human) (UniProt P06239); settings: compound 1.0 µM; ATP 90 µM
[28] = target: EPHA4 (human) (UniProt P54764); settings: ATP 15 µM
Chain of EPHA4 (human) (P54764 whole entry, looked up): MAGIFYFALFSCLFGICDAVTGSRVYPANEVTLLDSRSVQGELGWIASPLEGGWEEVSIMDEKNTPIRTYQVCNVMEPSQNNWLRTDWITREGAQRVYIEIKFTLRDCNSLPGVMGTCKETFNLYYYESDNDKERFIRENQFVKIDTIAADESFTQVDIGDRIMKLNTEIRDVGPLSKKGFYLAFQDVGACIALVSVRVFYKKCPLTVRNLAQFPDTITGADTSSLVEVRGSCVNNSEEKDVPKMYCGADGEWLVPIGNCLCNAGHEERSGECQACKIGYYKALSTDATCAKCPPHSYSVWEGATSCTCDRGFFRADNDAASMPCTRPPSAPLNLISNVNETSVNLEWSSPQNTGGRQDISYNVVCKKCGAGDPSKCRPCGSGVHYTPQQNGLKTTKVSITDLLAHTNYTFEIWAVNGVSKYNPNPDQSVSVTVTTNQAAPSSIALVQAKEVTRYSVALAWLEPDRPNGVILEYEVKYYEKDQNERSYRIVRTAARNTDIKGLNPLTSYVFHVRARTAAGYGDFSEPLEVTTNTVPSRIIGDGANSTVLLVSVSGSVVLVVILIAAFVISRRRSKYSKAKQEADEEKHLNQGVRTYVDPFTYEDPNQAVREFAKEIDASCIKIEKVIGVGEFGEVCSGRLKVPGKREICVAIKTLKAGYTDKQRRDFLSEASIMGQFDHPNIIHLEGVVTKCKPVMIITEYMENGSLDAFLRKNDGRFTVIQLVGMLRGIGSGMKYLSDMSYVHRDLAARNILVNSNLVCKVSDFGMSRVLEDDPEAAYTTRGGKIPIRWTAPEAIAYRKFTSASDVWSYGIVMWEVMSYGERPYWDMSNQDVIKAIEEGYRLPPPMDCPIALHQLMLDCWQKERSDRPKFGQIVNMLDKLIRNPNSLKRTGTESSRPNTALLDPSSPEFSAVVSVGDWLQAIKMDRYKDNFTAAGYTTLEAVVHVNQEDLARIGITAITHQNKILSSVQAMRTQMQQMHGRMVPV

[29] = target: JAK3 JH1 catalytic (human) (UniProt P52333); settings: ATP 10 µM
[30] = target: CAMK1D (human) (UniProt Q8IU85); settings: ATP 15 µM
[31] = target: AURKB (human) (UniProt Q96GD4); settings: ATP 10 µM
Chain of AURKB (human) (Q96GD4 whole entry, looked up): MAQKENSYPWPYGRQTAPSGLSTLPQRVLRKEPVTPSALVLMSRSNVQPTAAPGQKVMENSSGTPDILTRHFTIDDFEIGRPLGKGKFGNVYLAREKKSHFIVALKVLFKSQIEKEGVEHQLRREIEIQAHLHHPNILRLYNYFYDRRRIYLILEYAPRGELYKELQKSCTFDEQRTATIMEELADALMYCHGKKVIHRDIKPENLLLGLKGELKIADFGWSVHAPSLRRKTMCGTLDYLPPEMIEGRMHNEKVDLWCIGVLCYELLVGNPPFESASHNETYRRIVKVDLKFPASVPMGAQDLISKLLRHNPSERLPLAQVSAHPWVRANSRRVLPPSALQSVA

[32] = target: BRSK1 (human) (UniProt Q8TDC3); settings: ATP 200 µM
[33] = target: MAPK10 (human) (UniProt P53779); settings: ATP 10 µM

residual activity ([1]; compound 1.0 µM): 35%
residual activity ([1]; compound 10.0 µM): 11%
residual activity ([2]; compound 1.0 µM): 91%
residual activity ([2]; compound 10.0 µM): 58%
residual activity ([3]; compound 1.0 µM): 97%
residual activity ([3]; compound 10.0 µM): 57%
residual activity ([4]; compound 1.0 µM): 95%
residual activity ([4]; compound 10.0 µM): 63%
residual activity ([5]; compound 1.0 µM): 88%
residual activity ([5]; compound 10.0 µM): 60%
residual activity ([6]; compound 1.0 µM): 58%
residual activity ([6]; compound 10.0 µM): 23%
residual activity ([7]; compound 1.0 µM): 58%
residual activity ([7]; compound 10.0 µM): 21%
residual activity ([8]; compound 1.0 µM): 60%
residual activity ([8]; compound 10.0 µM): 19%
residual activity ([9]; compound 1.0 µM): 87%
residual activity ([9]; compound 10.0 µM): 43%
residual activity ([10]; compound 1.0 µM): 28%
residual activity ([10]; compound 10.0 µM): 17%
residual activity ([11]; compound 1.0 µM): 115%
residual activity ([11]; compound 10.0 µM): 116%
residual activity ([12]; compound 1.0 µM): 69%
residual activity ([12]; compound 10.0 µM): 28%
residual activity ([13]; compound 1.0 µM): 86%
residual activity ([13]; compound 10.0 µM): 84%
residual activity ([14]; compound 1.0 µM): 108%
residual activity ([14]; compound 10.0 µM): 86%
residual activity ([15]; compound 1.0 µM): 90%
residual activity ([15]; compound 10.0 µM): 82%
residual activity ([16]; compound 1.0 µM): 75%
residual activity ([16]; compound 10.0 µM): 38%
residual activity ([17]; compound 1.0 µM): 71%
residual activity ([17]; compound 10.0 µM): 38%
residual activity ([18]; compound 1.0 µM): 67%
residual activity ([18]; compound 10.0 µM): 42%
residual activity ([19]; compound 1.0 µM): 58%
residual activity ([19]; compound 10.0 µM): 6%
residual activity ([20]; compound 1.0 µM): 69%
residual activity ([20]; compound 10.0 µM): 25%
residual activity ([21]; compound 1.0 µM): 59%
residual activity ([21]; compound 10.0 µM): 18%
residual activity ([22]; compound 1.0 µM): 86%
residual activity ([22]; compound 10.0 µM): 81%
residual activity ([23]; compound 1.0 µM): 99%
residual activity ([23]; compound 10.0 µM): 96%
residual activity ([24]; compound 1.0 µM): 36%
residual activity ([24]; compound 10.0 µM): 9%
residual activity ([25]; compound 1.0 µM): 100%
residual activity ([25]; compound 10.0 µM): 103%
residual activity ([26]; compound 1.0 µM): 60%
residual activity ([26]; compound 10.0 µM): 24%
residual activity [27]: 70% and 89%
residual activity ([28]; compound 1.0 µM): 105%
residual activity ([28]; compound 10.0 µM): 106%
residual activity ([29]; compound 1.0 µM): 57%
residual activity ([29]; compound 10.0 µM): 9%
residual activity ([30]; compound 1.0 µM): 70%
residual activity ([30]; compound 10.0 µM): 38%
residual activity ([31]; compound 1.0 µM): 1%
residual activity ([31]; compound 10.0 µM): 0%
residual activity ([32]; compound 1.0 µM): 38%
residual activity ([32]; compound 10.0 µM): 29%
residual activity ([33]; compound 1.0 µM): 5%
residual activity ([33]; compound 10.0 µM): -6%
SMILES: O=C1c2ccccc2-c2n[nH]c3cccc1c23
